Assay [1] relates to whole cortex wound inoculated with Staphylococcus aureus, mice with type II diabetes. The experiment in a line: Healing of skin wound infected with Staphylococcus aureus (2), comparison with flavonoid controls (Example 4). It counts as in vivo, mice (C57BL/6). Conditions: 10 mg/mouse mixed with 5 mg vaseline, once a day. From the text: normal mice as control and mice with type II diabetes established according to the method of Example 1 were taken, anesthetized, and then subjected to backside unhairing to establish a whole cortex wound with a 6 mm biopsy puncher. The mice were inoculated with 1.5×10^6 CFU/ml of Staphylococcus aureus. […]
The experimental method was the same as that of Example 3, except that the grouping and administration were as follows:
A normal control group: no administration, 5 mice.
A type II diabetes control group administrated with vaseline: vaseline, 5 mg vaseline/mouse, 5 mice.
A type II diabetes group administrated with vaseline+a drug A: 10 mg/mouse, 10 mice (as a flavonoid control, and the drug A was soybean isoflavones).
A type II diabetes group administrated with vaseline+a drug B: 10 mg/mouse, 10 mice (as a flavonoid control, and the drug B was quercetin).
A type II diabetes group administrated with vaseline+cannflavin A: […], 10 mice.
The aforementioned 5 groups were all inoculated with Staphylococcus aureus according to the previous step (1).
The administration modes of the latter 4 groups were all application onto the wound, and the administration was conducted once a day. In the latter 3 groups, the drug A, the drug B or cannflavin A were respectively well mixed with 5 mg of vaseline as an ointment base and then administered.

Assay [2] has as its system whole cortex wound of wild C57 adult male mice. The assay can be described thus: Experiment of skin wound healing (Example 2, wound without bacterial infection). It counts as in vivo, mice (C57BL/6). Conditions: 10 mg/mouse mixed with 5 mg vaseline. How it is done:
Wild C57 adult male mice (C57BL/6, purchased from Vital River) were taken and anesthetized, and then subjected to backside unhairing to establish a whole cortex wound with a 6 mm biopsy puncher. Attention should be paid to disinfection for preventing infection.
A normal control group: 5 mice, no administration.
A group administrated with vaseline: vaseline (vaseline for medical purpose, purchased from Tianjin Zhiyuan Chemical Reagent Co., Ltd., the same below), 5 mg vaseline/mouse, 5 mice.
A group administrated with A drug A: 10 mg/mouse, 10 mice (as a flavonoid control, and the drug A was soybean isoflavones).
A group administrated with a drug B: 10 mg/mouse, 10 mice (as a flavonoid control, and the drug B was quercetin).
A group administrated with cannflavin A: cannflavin A, 10 mg/mouse, 10 mice. The administration modes of the latter 4 groups were all application onto the wound, and the administration was conducted once a day. Because vaseline was a commonly used ointment base^[8], in the latter 3 groups, the drug A, the drug B or cannflavin A were respectively well mixed with 5 mg of vaseline and then administered.
Photos were taken to record a wound healing condition of mice on days 0, 4 and 7 of administration, and the healing degree of a wound area was calculated by the PhotoShop software with 1 cm^2 as a scale. […]

These results are taken from patent publication US20220079916A1, “USE OF GERANYLFLAVONE A IN PREPARATION OF DRUG FOR PROMOTING HEALING OF WOUNDS” (HANYI BIO-TECHNOLOGY COMPANY LTD., priority 2019, published 2022).

For the compound `O=c1c(O)c(-c2ccc(O)c(O)c2)oc2cc(O)cc(O)c12` [drug B, quercetin, reference compound], the “help to wound healing” value in assay [1] is “could not help wound healing”. Further, the “time in which the wound basically healed” value in assay [2] (applied onto the wound once a day, normal mice, no infection) is “about 4 days”. The “promoting the healing degree of wounds without bacterial infection, compared among drugs, vaseline and control” value in assay [2] (once a day, days 0, 4 and 7) is recorded as “no significant difference”.
